One experiment addresses CSK protein (Homo sapiens (Human), UniProt P41240). The experiment is described as follows: CSK Inhibition Assay. It is filed as biochemical. The protocol: Test compound was dissolved in DMSO at 10 mM. 45 uL of compound was transferred into a 384-well compound source plate (LABCYTE cat #P-05525) and serially diluted at 1:3 ratio to create a 11-point dilutions. The same volume of DMSO was adopted as high control. 20 nL of these compounds DMSO dilutes were dispensed into a new 384-well assay plate by Echo 550. […] 15 uL of kinase assay buffer containing CSK protein and substrate was transferred to assay plate and incubated at RT for 30 minutes. Kinase assay buffer supplemented with substrate peptides was employed as low control to monitor the background. 4 μM of ATP was prepared in kinase assay buffer and 5 μL of ATP solution was added to each well to start the reaction. The assay plate was incubated at 25° C. for 90 minutes and the reaction was stopped by adding 40 μL of 0.5 M EDTA.
(§1) Phosphorylated fluorescent-tagged peptides were differentiated from non-phosphorylated peptides by separating using Caliper EZ Reader II and the detection was directly converted to conversion ratio.
(§2) For estimation of IC50, the % substrate conversion values are transformed to % Inhibition Ratio by applying the following equation: […]

The target in the next experiment is LCK protein (Homo sapiens (Human), UniProt P06239). The experiment is described as follows: LCK Inhibition Assay. It is filed as biochemical. Here is the method: Test compound was dissolved in DMSO at 10 mM. 45 uL of compound was transfer into a 384-well compound source plate (LABCYTE cat #P-05525) and serially diluted at 1:3 ratio to create a 11-point dilutions. The same volume of DMSO was adopted as high control. 20 nL of these compounds DMSO dilutes were dispensed into a new 384-well assay plate by Echo 550. LCK protein (0.50 nM, Cama Biosciences, cat #08-170), florescent labeled substrate FLPeptide4 (2 μM, PerkinElmer, cat #760348) was prepared in kinase assay buffer (50 mM HEPES (pH 7.5), 10 mM MgCl2, 0.01% Brij-35, 2 mM DTT and 0.005 mg/ml BSA). 15 uL of kinase assay buffer containing LCK protein and substrate was transferred to assay plate and incubate at RT for 30 minutes. Kinase assay buffer supplemented with substrate peptides was employed as low control to monitor the background. 400 μM ATP was prepared in kinase assay buffer and 5 μL of ATP solution was added to each well to start the reaction. The assay plate was incubated at 25° C. for 90 minutes and the reaction was stopped by adding 40 μL of 0.5 M EDTA.
as §1, §2

Sequence of CSK protein (P41240 whole entry): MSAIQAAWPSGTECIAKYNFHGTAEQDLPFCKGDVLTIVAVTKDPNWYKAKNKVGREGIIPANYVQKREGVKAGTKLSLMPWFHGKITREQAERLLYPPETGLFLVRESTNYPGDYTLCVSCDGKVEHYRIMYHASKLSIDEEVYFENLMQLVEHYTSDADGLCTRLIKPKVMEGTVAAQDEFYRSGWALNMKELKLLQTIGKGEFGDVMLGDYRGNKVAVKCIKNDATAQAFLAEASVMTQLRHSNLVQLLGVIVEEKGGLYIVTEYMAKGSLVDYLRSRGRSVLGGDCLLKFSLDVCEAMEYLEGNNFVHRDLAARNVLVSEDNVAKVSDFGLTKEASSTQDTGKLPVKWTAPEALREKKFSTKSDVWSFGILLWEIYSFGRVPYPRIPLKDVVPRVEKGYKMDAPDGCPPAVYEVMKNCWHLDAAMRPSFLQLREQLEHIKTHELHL
Sequence of LCK protein (P06239 whole entry): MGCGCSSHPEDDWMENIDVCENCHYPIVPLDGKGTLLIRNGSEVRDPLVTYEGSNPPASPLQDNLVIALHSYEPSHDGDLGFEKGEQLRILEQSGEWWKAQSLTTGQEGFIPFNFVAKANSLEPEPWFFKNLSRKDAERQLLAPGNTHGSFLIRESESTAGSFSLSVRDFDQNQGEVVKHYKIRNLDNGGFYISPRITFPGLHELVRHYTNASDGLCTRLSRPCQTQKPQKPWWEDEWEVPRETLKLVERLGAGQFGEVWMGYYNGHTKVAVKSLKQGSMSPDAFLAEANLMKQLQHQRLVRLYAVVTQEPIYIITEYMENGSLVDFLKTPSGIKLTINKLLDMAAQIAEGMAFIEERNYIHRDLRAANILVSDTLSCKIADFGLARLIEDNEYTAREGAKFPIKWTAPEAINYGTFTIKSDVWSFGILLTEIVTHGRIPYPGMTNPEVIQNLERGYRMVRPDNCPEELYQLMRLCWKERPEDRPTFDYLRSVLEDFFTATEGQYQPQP

Usually IC50 stands for the concentration at which inhibition is half-maximal. Lower therefore signals greater potency. For `O=S(=O)(Nc1cccc(-c2nn(C3CCCCC3)cc2-c2ccnc(Nc3ccc(N4CCOCC4)nc3)n2)c1F)c1c(F)cccc1F` [Compound 109], the IC50 against CSK protein was 4.6 nM; against LCK protein it was less than 100 nM.

As for `Nc1nccc(-c2cn(C3CCCCC3)nc2-c2cccc(NS(=O)(=O)c3c(F)cccc3F)c2F)n1` [Compound 110], the figures for the IC50 against CSK protein and against LCK protein were 221 nM and more than 1000 nM, respectively.

Take `Nc1nccc(-c2sc(N3CCCCC3)nc2-c2cccc(NS(=O)(=O)c3c(F)cccc3F)c2F)n1` [Compound 111]: the half-maximal inhibitory concentration (IC50) on CSK protein is 16.4 nM; on LCK protein, 100 to 1000 nM.

As for `CNc1nccc(-c2sc(N3CCCC3=O)nc2-c2cccc(NS(=O)(=O)c3c(F)cccc3F)c2F)n1` [Compound 113], the IC50 is 23.8 nM against CSK protein and more than 1000 nM against LCK protein.

In the case of `CNc1nccc(-c2sc(NC)nc2-c2cccc(NS(=O)(=O)c3c(F)cccc3F)c2F)n1` [Compound 114], the IC50 is 18.5 nM against CSK protein and 100 to 1000 nM on LCK protein.

Turning to `CNc1nccc(-c2sc(N3CCCCC3)nc2-c2cccc(NS(=O)(=O)c3c(F)cccc3F)c2F)n1` [Compound 115], the IC50 is 7.1 nM at CSK protein and more than 1000 nM against LCK protein.

As to `CNc1nccc(-c2sc(N3CCOCC3)nc2-c2cccc(NS(=O)(=O)c3c(F)cccc3F)c2F)n1` [Compound 116], the IC50 is 13.5 nM on CSK protein and 100 to 1000 nM at LCK protein.

As for `CNc1nccc(-c2sc(C(C)(C)C)nc2-c2cccc(NS(=O)(=O)c3c(F)cccc3F)c2F)n1` [Compound 117], the IC50 was 81.5 nM against CSK protein and more than 1000 nM against LCK protein.

As to `CN1CCN(c2ccc(Nc3nccc(-c4sc(C(C)(C)C)nc4-c4cccc(NS(=O)(=O)c5c(F)cccc5F)c4F)n3)cn2)CC1` [Compound 119], the IC50 against CSK protein was 3.7 nM; against LCK protein, less than 100 nM.

Take `CC(C)c1nc(-c2cccc(NS(=O)(=O)c3c(F)cccc3F)c2F)c(-c2ccnc(Nc3ccccc3)n2)s1` [Compound 120]: the IC50 is 20.6 nM at CSK protein and less than 100 nM on LCK protein.

Take `O=S(=O)(Nc1cccc(-c2nc(C3CCCCC3)sc2-c2ccnc(Nc3ccc(N4CCOCC4)nc3)n2)c1F)c1c(F)cccc1F` [Compound 121]: the IC50 against CSK protein is 15.5 nM; against LCK protein, less than 100 nM.

For the molecule `Nc1nccc(-c2sc(C3CCNCC3)nc2-c2cccc(NS(=O)(=O)c3c(F)cccc3F)c2F)n1` [Compound 122], the IC50 on CSK protein was 634 nM; against LCK protein, 100 to 1000 nM.

`CNc1nccc(-c2sc(-c3ccc(F)cn3)nc2-c2cccc(NS(=O)(=O)c3c(Cl)cccc3Cl)c2F)n1` [Compound 123]: the IC50 on CSK protein was 23.2 nM; at LCK protein it was more than 1000 nM.

As to `CNc1nccc(-c2sc(N3CCCC3=O)nc2-c2cccc(NS(=O)(=O)c3c(F)ccc(C)c3F)c2F)n1` [Compound 124], the results for the 50% inhibitory concentration (IC50) against CSK protein and against LCK protein were 14.9 nM and more than 1000 nM, respectively.

On to `Cc1ccc(Cl)c(S(=O)(=O)Nc2cccc(-c3nc(-c4ccc(F)cn4)sc3-c3ccnc(N)n3)c2F)c1Cl` [Compound 125], for which the IC50 is 15.3 nM against CSK protein and more than 1000 nM at LCK protein.

Regarding `CNc1nccc(-c2sc(-c3ccc(F)cn3)nc2-c2cccc(NS(=O)(=O)c3c(Cl)ccc(C)c3Cl)c2F)n1` [Compound 126], the 50% inhibitory concentration (IC50) on CSK protein was 30.2 nM; against LCK protein, more than 1000 nM.

Turning to `CNc1nccc(-c2sc(-c3cncc(F)c3)nc2-c2cccc(NS(=O)(=O)c3c(Cl)cccc3Cl)c2F)n1` [Compound 127], the results for the IC50 on CSK protein and against LCK protein were 5.8 nM and more than 1000 nM, respectively.

Consider `CNc1nccc(-c2sc(N3CCCC3)nc2-c2cccc(NS(=O)(=O)c3c(F)cccc3F)c2F)n1` [Compound 128], for which the IC50 against CSK protein is 12 nM; at LCK protein, more than 1000 nM.

On to `COc1ccn2c(-c3ccnc(NC4CC4)n3)c(-c3cccc(NS(=O)(=O)c4c(F)ccc(C)c4F)c3F)nc2c1` [Compound 129], for which the IC50 is 7.4 nM against CSK protein and more than 1000 nM at LCK protein.

Take `COc1ccn2c(-c3ccnc(NCCO)n3)c(-c3cccc(NS(=O)(=O)c4c(F)ccc(C)c4F)c3F)nc2c1` [Compound 130]: the half-maximal inhibitory concentration (IC50) on CSK protein was 215 nM; against LCK protein, more than 1000 nM.

On to `Cc1ccc(F)c(S(=O)(=O)Nc2cccc(-c3nc(-c4ccccc4)sc3-c3ccnc(NCCO)n3)c2F)c1F` [Compound 131], for which the IC50 against CSK protein was 13.1 nM; against LCK protein, more than 1000 nM.

Take `Nc1nccc(-c2sc(-c3ccc(F)cn3)nc2-c2cccc(NS(=O)(=O)c3c(Cl)cccc3Cl)c2F)n1` [Compound 132]: the IC50 against CSK protein is 62 nM; at LCK protein, 100 to 1000 nM.

Take `O=S(=O)(Nc1cccc(-c2nc(-c3ccc(F)cn3)sc2-c2ccnc(NCCO)n2)c1F)c1c(Cl)cccc1Cl` [Compound 133]: the figures for the IC50 on CSK protein and against LCK protein were 17.8 nM and more than 1000 nM, respectively.

Consider `CNc1nccc(-c2sc(-c3ccc(F)cn3)nc2-c2cccc(NS(=O)(=O)c3c(F)cc(Cl)cc3F)c2F)n1` [Compound 134], for which the IC50 on CSK protein is 184 nM; against LCK protein, more than 1000 nM.

`O=S(=O)(Nc1cccc(-c2nc(-c3ccc(F)cn3)sc2-c2ccnc(NC3CC3)n2)c1F)c1c(Cl)cccc1Cl` [Compound 135]: the IC50 at CSK protein was 15.7 nM; against LCK protein it was more than 1000 nM.

As to `Cc1ccc(Cl)c(S(=O)(=O)Nc2cccc(-c3nc(-c4ccc(F)cn4)sc3-c3ccnc(NCCO)n3)c2F)c1Cl` [Compound 136], the IC50 against CSK protein is 108 nM; against LCK protein, more than 1000 nM.

Take `Cc1ccc(Cl)c(S(=O)(=O)Nc2cccc(-c3nc(-c4ccc(F)cn4)sc3-c3ccnc(NC4CC4)n3)c2F)c1Cl` [Compound 137]: the results for the IC50 against CSK protein and at LCK protein were 21.3 nM and more than 1000 nM, respectively.

With `Cc1ccc(Cl)c(S(=O)(=O)Nc2cccc(-c3nc(-c4cncc(F)c4)sc3-c3ccnc(NCCO)n3)c2F)c1Cl` [Compound 138], the IC50 on CSK protein is 8.5 nM; at LCK protein, more than 1000 nM.

As to `Cc1ccc(Cl)c(S(=O)(=O)Nc2cccc(-c3nc(-c4cncc(F)c4)sc3-c3ccnc(NC4CC4)n3)c2F)c1Cl` [Compound 139], the IC50 is 2.7 nM on CSK protein and more than 1000 nM against LCK protein.

On to `CNc1nccc(-c2sc(-c3cncc(F)c3)nc2-c2cc(Cl)cc(NS(=O)(=O)c3c(F)cccc3F)c2F)n1` [Compound 140], for which the figures for the half-maximal inhibitory concentration (IC50) at CSK protein and at LCK protein were 16.5 nM and more than 1000 nM, respectively.

Consider `Cc1ncc(-c2nc(-c3cccc(NS(=O)(=O)c4c(Cl)cccc4Cl)c3F)c(-c3ccnc(N)n3)s2)cn1` [Compound 141], for which the IC50 against CSK protein was 6.8 nM; at LCK protein it was 100 to 1000 nM.

For `Cc1ncc(-c2nc(-c3cccc(NS(=O)(=O)c4c(Cl)ccc(C)c4Cl)c3F)c(-c3ccnc(N)n3)s2)cn1` [Compound 142], the half-maximal inhibitory concentration (IC50) against CSK protein is 10.5 nM; at LCK protein, more than 1000 nM.

On to `CNc1nccc(-c2sc(-c3cnc(C)nc3)nc2-c2cccc(NS(=O)(=O)c3c(Cl)ccc(C)c3Cl)c2F)n1` [Compound 143], for which the IC50 at CSK protein was 3.6 nM; at LCK protein, more than 1000 nM.

Take `CNc1nccc(-c2sc(-c3cnc(C)cn3)nc2-c2cccc(NS(=O)(=O)c3c(F)ccc(C)c3F)c2F)n1` [Compound 144]: the IC50 against CSK protein is 23.9 nM; at LCK protein, more than 1000 nM.

With `CNc1nccc(-c2c(-c3cccc(NS(=O)(=O)c4c(Cl)cccc4Cl)c3F)nc3cc(OC)ccn23)n1` [Compound 145], the IC50 against CSK protein was 113 nM; on LCK protein, more than 1000 nM.

In the case of `CNc1nccc(-c2c(-c3cccc(NS(=O)(=O)c4c(Cl)ccc(C)c4Cl)c3F)nc3cc(OC)ccn23)n1` [Compound 146], the 50% inhibitory concentration (IC50) on CSK protein was 41.3 nM; at LCK protein, more than 1000 nM.

In the case of `COc1ccn2c(-c3ccnc(NCCO)n3)c(-c3cccc(NS(=O)(=O)c4c(Cl)ccc(C)c4Cl)c3F)nc2c1` [Compound 147], the IC50 was 30.3 nM at CSK protein and more than 1000 nM against LCK protein.

Regarding `CNc1nccc(-c2sc(-c3cnc(C)nc3)nc2-c2cccc(NS(=O)(=O)c3c(Cl)cccc3Cl)c2F)n1` [Compound 148], the IC50 is 6.9 nM on CSK protein and 100 to 1000 nM against LCK protein.

As to `Cc1ncc(-c2nc(-c3cccc(NS(=O)(=O)c4c(Cl)cccc4Cl)c3F)c(-c3ccnc(NC4CC4)n3)s2)cn1` [Compound 149], the results for the IC50 against CSK protein and against LCK protein were 4.5 nM and more than 1000 nM, respectively.

Consider `Cc1ncc(-c2nc(-c3cccc(NS(=O)(=O)c4c(Cl)cccc4Cl)c3F)c(-c3ccnc(NCCO)n3)s2)cn1` [Compound 150], for which the figures for the IC50 against CSK protein and at LCK protein were 8.1 nM and more than 1000 nM, respectively.

Regarding `Cc1ncc(-c2nc(-c3cccc(NS(=O)(=O)c4c(Cl)ccc(C)c4Cl)c3F)c(-c3ccnc(NC4CC4)n3)s2)cn1` [Compound 151], the half-maximal inhibitory concentration (IC50) at CSK protein was 4.8 nM; on LCK protein, more than 1000 nM.

On to `Cc1ncc(-c2nc(-c3cccc(NS(=O)(=O)c4c(Cl)ccc(C)c4Cl)c3F)c(-c3ccnc(NCCO)n3)s2)cn1` [Compound 152], for which the IC50 against CSK protein is 6 nM; at LCK protein, more than 1000 nM.

These data come from patent US12427146B2, “C-terminal SRC kinase inhibitors” (INVENTISBIO CO., LTD., priority 2018, dated 2025).
